For experiment [1], the target named is T1, mu opioid receptor (MOR) (Homo sapiens, UniProt P35372). As to the kind of experiment: MOR cAMP agonist assay.
For experiment [2], the target named is T1, mu opioid receptor (MOR). Description: MOR GTPγS agonist assay. The experiment is classed as biochemical. The arrangement: host or cells: CHO-K1. Particulars: membranes of CHO cells over-expressing MOR; SPA beads; read-out: MOR GTPγS EC50. An excerpt:
Membranes obtained from the stable cell lines over-expressing MOR were subjected to GTPγS assay using SPA beads (Perkin Elmer, Cat #RPNQ0001).

The structures appear in SMILES notation. Where a name gives a salt, the structure may show the parent alone. Some results are limits rather than exact numbers.

Experimental findings from patent publication US20210147343A1 (priority 2018, published 2021) are described below.

A word on the EC50: it is the concentration at which the effect is half-maximal.

T1 sequence (P35372 whole entry): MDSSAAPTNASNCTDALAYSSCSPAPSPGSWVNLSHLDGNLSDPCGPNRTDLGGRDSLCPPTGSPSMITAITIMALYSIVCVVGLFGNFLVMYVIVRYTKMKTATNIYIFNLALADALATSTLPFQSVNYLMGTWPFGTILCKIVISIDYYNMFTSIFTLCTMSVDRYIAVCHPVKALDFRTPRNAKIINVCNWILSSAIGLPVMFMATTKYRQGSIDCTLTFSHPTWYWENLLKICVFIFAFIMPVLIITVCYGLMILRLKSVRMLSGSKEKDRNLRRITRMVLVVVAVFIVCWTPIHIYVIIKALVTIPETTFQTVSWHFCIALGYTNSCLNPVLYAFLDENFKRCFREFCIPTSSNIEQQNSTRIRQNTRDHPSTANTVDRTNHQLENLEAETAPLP

At mu opioid receptor (MOR) [1], `CC[C@@]1(c2ccccc2)C[C@H]1C(=O)NC[C@H](Cc1ccc(C(=O)NC)c(F)c1)N(C)C` [Compound B-21, 4-((S)-2-(dimethylamino)-3-((1R,2R)-2-ethyl-2-phenylcyclopropane-1-carboxamido)propyl)-2-fluoro-N-methylbenzamide] returned an EC50 of less than 100 nM.

With `CNC(=O)c1ccc(C[C@@H](CNC(=O)[C@H]2C[C@]2(C)c2ccccc2)N(C)C)cc1F` [Compound B-22, 4-((S)-2-(dimethylamino)-3-((1S,2S)-2-methyl-2-phenylcyclopropane-1-carboxamido)propyl)-2-fluoro-N-methylbenzamide], the EC50 on mu opioid receptor (MOR) [1] was less than 100 nM.

For the compound `CCNC(=O)c1ccc(C[C@@H](CNC(=O)[C@@H]2C[C@@]2(C)c2ccccc2)N(C)C)cc1F` [Compound B-23, 4-((S)-2-(dimethylamino)-3-((1R,2R)-2-methyl-2-phenylcyclopropane-1-carboxamido)propyl)-N-ethyl-2-fluorobenzamide], on mu opioid receptor (MOR) [1], the EC50 is less than 100 nM.

For `CN(C)[C@H](CNC(=O)[C@@H]1C[C@@H]1c1ccccc1)Cc1ccc(O)cc1` [Compound B-25, (1R,2S)—N—((S)-2-(dimethylamino)-3-(4-hydroxyphenyl)propyl)-2-phenylcyclopropane-1-carboxamide], at mu opioid receptor (MOR) [1], the EC50 lay in the range of 100 to 1000 nM.

As to `CNC(=O)c1cc(C)c(C[C@@H](CNC(=O)[C@@H]2C[C@@]2(C)c2ccccc2)N(C)C)cc1F` [Compound B-26, 4-((S)-2-(dimethylamino)-3-((1R,2R)-2-methyl-2-phenylcyclopropane-1-carboxamido)propyl)-2-fluoro-N,5-dimethylbenzamide], the EC50 on mu opioid receptor (MOR) [1] was less than 100 nM.

With `CNC(=O)c1c(F)cc(C[C@@H](CNC(=O)[C@@H]2C[C@]2(C)c2ccccc2)N(C)C)cc1F` [Compound B-27, 4-((S)-2-(dimethylamino)-3-((1R,2S)-2-methyl-2-phenylcyclopropane-1-carboxamido)propyl)-2,6-difluoro-N-methylbenzamide], the EC50 on mu opioid receptor (MOR) [1] was less than 100 nM.

Consider `CNC(=O)c1cc(F)c(C[C@@H](CNC(=O)[C@@H]2C[C@]2(C)c2ccccc2)N(C)C)cc1F` [Compound B-28, 4-((S)-2-(dimethylamino)-3-((1R,2S)-2-methyl-2-phenylcyclopropane-1-carboxamido)propyl)-2,5-difluoro-N-methylbenzamide], for which the EC50 on mu opioid receptor (MOR) [1] is less than 100 nM.

With `CN(C)[C@](C)(CNC(=O)c1ccc(Cl)c(Cl)c1)Cc1ccc(O)cc1` [Compound C-3, (S)-3,4-dichloro-N-(2-(dimethylamino)-3-(4-hydroxyphenyl)-2-methylpropyl)benzamide], on mu opioid receptor (MOR) [2], the EC50 was more than 1000 nM.

Regarding `CN(C)[C@H](CNC(=O)c1ccc(Cl)c(Cl)c1)Cc1ccc2n[nH]cc2c1` [Compound C-4, (S)-3,4-dichloro-N-(2-(dimethylamino)-3-(1H-indazol-5-yl)propyl)benzamide], the EC50 on mu opioid receptor (MOR) [2] was less than 100 nM.

For the compound `COc1ccc(C(=O)NC[C@H](Cc2c(C)cc(O)cc2C)N(C)C)cc1Cl` [Compound C-5, (S)-3-chloro-N-(2-(dimethylamino)-3-(4-hydroxy-2,6-dimethylphenyl)propyl)-4-methoxybenzamide], at mu opioid receptor (MOR) [2], the half-maximal effective concentration (EC50) was less than 100 nM.

For `Cc1cc(O)cc(C)c1C[C@@H](CNC(=O)c1ccc(Cl)c(F)c1)N(C)C` [Compound C-6, (S)-4-chloro-N-(2-(dimethylamino)-3-(4-hydroxy-2,6-dimethylphenyl)propyl)-3-fluorobenzamide], the EC50 at mu opioid receptor (MOR) [2] was less than 100 nM.

For the compound `CNC(=O)c1cc(C)c(C[C@@H](CNC(=O)c2ccccc2Cl)N(C)C)c(C)c1` [Compound C-10], the EC50 at mu opioid receptor (MOR) [2] is 100 to 1000 nM.

Consider `CNC(=O)c1cc(C)c(C[C@@H](CNC(=O)c2ccc(Cl)cc2)N(C)C)c(C)c1` [Compound C-11], for which, at mu opioid receptor (MOR) [2], the EC50 was less than 100 nM.

For the compound `CNC(=O)c1cc(C)c(C[C@@H](CNC(=O)c2cc(Cl)cc(Cl)c2)N(C)C)c(C)c1` [Compound C-12], the EC50 on mu opioid receptor (MOR) [2] is less than 100 nM.

`CNC(=O)c1cc(C)c(C[C@@H](CNC(=O)c2ccc(Cl)c(F)c2)N(C)C)c(C)c1` [Compound C-13]: the EC50 at mu opioid receptor (MOR) [2] was less than 100 nM.

Regarding `CNC(=O)c1cc(C)c(C[C@@H](CNC(=O)c2ccc(F)c(Cl)c2)N(C)C)c(C)c1` [Compound C-14], the EC50 at mu opioid receptor (MOR) [2] is less than 100 nM.

As for `CNC(=O)c1cc(C)c(C[C@@H](CNC(=O)c2ccc(Cl)cc2C)N(C)C)c(C)c1` [Compound C-15], the EC50 on mu opioid receptor (MOR) [2] was less than 100 nM.

Regarding `CNC(=O)c1cc(C)c(C[C@@H](CNC(=O)c2ccc(Cl)cc2Cl)N(C)C)c(C)c1` [Compound C-16], on mu opioid receptor (MOR) [2], the EC50 is less than 100 nM.

Turning to `CNC(=O)c1cc(C)c(C[C@@H](CNC(=O)c2ccc(OC)cc2)N(C)C)c(C)c1` [Compound C-17], the EC50 on mu opioid receptor (MOR) [2] was less than 100 nM.

With `CNC(=O)c1cc(C)c(C[C@@H](CNC(=O)c2ccc(C)cc2C)N(C)C)c(C)c1` [Compound C-18], at mu opioid receptor (MOR) [2], the EC50 is less than 100 nM.

On to `CN(C)[C@H](CNC(=O)c1ccc(Cl)c(F)c1)Cc1ccc(O)cc1Cl` [Compound C-19], for which the EC50 at mu opioid receptor (MOR) [2] fell in the range of 100 to 1000 nM.

With `CN(C)[C@H](CNC(=O)c1ccc(C2CC2)cc1)Cc1ccc(O)cc1Cl` [Compound C-20], on mu opioid receptor (MOR) [2], the half-maximal effective concentration (EC50) was more than 1000 nM.

With `CN(C)[C@H](CNC(=O)c1ccc(Cl)cc1)Cc1ccc(O)cc1Cl` [Compound C-21], at mu opioid receptor (MOR) [2], the EC50 is more than 1000 nM.

For the compound `CN(C)[C@H](CNC(=O)c1cccc(Cl)c1)Cc1ccc(O)cc1` [Compound C-23, (S)-3-chloro-N-(2-(dimethylamino)-3-(4-hydroxyphenyl)propyl)benzamide], at mu opioid receptor (MOR) [2], the EC50 was 100 to 1000 nM.

`Cc1cc(O)cc(C)c1C[C@@H](CNC(=O)c1cccc(Cl)c1)N(C)C` [Compound C-25]: the EC50 at mu opioid receptor (MOR) [2] is less than 100 nM.

With `Cc1cc(O)cc(C)c1C[C@@H](CNC(=O)c1cc(F)c(Cl)c(F)c1)N(C)C` [Compound C-29], on mu opioid receptor (MOR) [2], the EC50 is less than 100 nM.

As for `CN1Cc2cc(O)ccc2C[C@H]1CNC(=O)c1cccc(Cl)c1` [Compound C-36, (S)-3-chloro-N-((7-hydroxy-2-methyl-1,2,3,4-tetrahydroisoquinolin-3-yl)methyl)benzamide], at mu opioid receptor (MOR) [2], the EC50 was less than 100 nM.

In the case of `CNC(=O)c1ccc(C[C@@H](CNC(=O)c2ccc(Cl)c(Cl)c2)N(C)CC2CC2)cc1F` [Compound C-38], on mu opioid receptor (MOR) [2], the EC50 was less than 100 nM.

Turning to `CNC(=O)c1ccc(C[C@@H](CNC(=O)c2cccc(Cl)c2)N(C)C)c(Cl)c1` [Compound C-41], the EC50 on mu opioid receptor (MOR) [2] was less than 100 nM.

On to `CNC(=O)c1cc(C)c(C[C@@H](CNC(=O)c2ccc(Cl)c(Cl)c2)N(C)C)c(C)c1` [Compound C-42, (S)-4-(3-(3,4-Dichlorobenzamido)-2-(dimethylamino)propyl)-N,3,5-trimethylbenzamide Hydrochloride], for which, at mu opioid receptor (MOR) [2], the EC50 is less than 100 nM.

For the compound `CNC(=O)c1cc(C)c(CC(CNC(=O)c2ccccc2C2CC2)N(C)C)c(C)c1` (stereo not drawn) [Compound C-43], the EC50 on mu opioid receptor (MOR) [2] is less than 100 nM.

As for `CNC(=O)c1cc(C)c(C[C@@H](CNC(=O)c2cccc(Cl)c2)N(C)C)c(C)c1` [Compound C-44], the EC50 at mu opioid receptor (MOR) [2] was less than 100 nM.

Take `CNC(=O)c1cc(C)c(C[C@@H](CNC(=O)c2ccccn2)N(C)C)c(C)c1` [Compound C-46]: the EC50 on mu opioid receptor (MOR) [2] was more than 1000 nM.

As to `CNC(=O)c1cc(C)c(C[C@@H](CNC(=O)c2cnccn2)N(C)C)c(C)c1` [Compound C-47, (S)—N-(3-(2,6-dimethyl-4-(methylcarbamoyl)phenyl)-2-(dimethylamino)propyl)pyrazine-2-carboxamide], the EC50 at mu opioid receptor (MOR) [2] is more than 1000 nM.

Regarding `CNC(=O)c1cc(C)c(C[C@@H](CNC(=O)c2ncc(Cl)cc2Cl)N(C)C)c(C)c1` [Compound C-48], the EC50 on mu opioid receptor (MOR) [2] lay in the range of 100 to 1000 nM.

Regarding `CNC(=O)c1cc(C)c(C[C@@H](CNC(=O)c2ncc(C)cc2C)N(C)C)c(C)c1` [Compound C-49], the EC50 at mu opioid receptor (MOR) [2] lay within 100 to 1000 nM.

Consider `CN(C)[C@H](CNC(=O)c1ccc(Cl)cc1Cl)Cc1ccc2n[nH]cc2c1` [Compound C-50, (S)-2,4-dichloro-N-(2-(dimethylamino)-3-(1H-indazol-5-yl)propyl) benzamide], for which the 50% effective concentration (EC50) at mu opioid receptor (MOR) [2] was in the range of 100 to 1000 nM.

Take `Cc1ccc(C(=O)NC[C@H](Cc2ccc3n[nH]cc3c2)N(C)C)c(C)c1` [Compound C-51]: at mu opioid receptor (MOR) [2], the EC50 fell in the range of 100 to 1000 nM.

Take `Cc1cnc(C(=O)NC[C@H](Cc2ccc3n[nH]cc3c2)N(C)C)c(C)c1` [Compound C-52]: on mu opioid receptor (MOR) [2], the EC50 was more than 1000 nM.

In the case of `CN1Cc2cc(O)ccc2C[C@H]1CNC(=O)N1CCc2ccccc2C1` [Compound C-53, (S)—N-((7-hydroxy-2-methyl-1,2,3,4-tetrahydroisoquinolin-3-yl)methyl)-3,4-dihydroisoquinoline-2(1H)-carboxamide], the EC50 at mu opioid receptor (MOR) [2] is less than 100 nM.

Turning to `Cc1cc(O)cc(C)c1C[C@@H](CNC(=O)N1CCc2ccccc2C1)N(C)C` [Compound C-55, (S)—N-(2-(dimethylamino)-3-(4-hydroxy-2,6-dimethyphenyl)propyl)-3,4-dihydroisoquinoline-2(1H)-carboxamide], at mu opioid receptor (MOR) [2], the EC50 is more than 1000 nM.

Consider `CNC(=O)c1ccc(C[C@@H](CNC(=O)N2CCc3ccccc3C2)N(C)C)cc1F` [Compound C-58, (S)—N-(2-(dimethylamino)-3-(3-fluoro-4-(methylcarbamoyl)phenyl)propyl)-3,4-dihydroisoquinoline-2(1H)-carboxamide], for which the EC50 at mu opioid receptor (MOR) [2] is less than 100 nM.

Take `CN(CC1CC1)[C@H](CNC(=O)c1ccc(Cl)c(Cl)c1)Cc1ccc2[nH]ncc2c1` [Compound C-62, (S)-3,4-dichloro-N-(2-((cyclopropylmethyl)(methyl)amino)-3-(1H-indazol-5-yl)propyl)benzamide]: the EC50 at mu opioid receptor (MOR) [2] lay in the range of 100 to 1000 nM.

For the compound `CN(CC(F)(F)F)[C@H](CNC(=O)c1ccc(Cl)c(Cl)c1)Cc1ccc2[nH]ncc2c1` [Compound C-63], on mu opioid receptor (MOR) [2], the EC50 was more than 1000 nM.

Regarding `CN(C)[C@H](CNC(=O)c1ccc(Cl)c(F)c1)Cc1ccc2n[nH]cc2c1` [Compound C-65, (S)-4-chloro-N-(2-(dimethylamino)-3-(2H-indazol-5-yl)propyl)-3-fluorobenzamide], the EC50 on mu opioid receptor (MOR) [2] is less than 100 nM.
